Measurements published in PubChem BioAssay (NCI).
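Compound exposure: 48 hours, 5 concentrations, 96-well plates. Here, GI50 denotes the concentration required for 50% inhibition of growth. The concentration for full growth arrest is given as TGI.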

Columns and labels:
Test in all cases: inhibition of tumour cell growth, NCI panel, 48 h
HS 578T breast = system: HS 578T breast
SK-MEL-28 melanoma = system: SK-MEL-28 melanoma
HCT-15 colon = system: HCT-15 colon
OVCAR-4 ovarian = system: OVCAR-4 ovarian
NCI-H460 lung = system: NCI-H460 lung
HT29 colon = system: HT29 colon
SR leukemia = system: SR leukemia
CCRF-CEM leukemia = system: CCRF-CEM leukemia
RXF 393 renal = system: RXF 393 renal
HOP-62 NSCLC = system: HOP-62 NSCLC
SF-295 CNS = system: SF-295 CNS
IGROV1 ovarian = system: IGROV1 ovarian
KM12 colon = system: KM12 colon
SK-OV-3 ovarian = system: SK-OV-3 ovarian
MDA-MB-231 breast = system: MDA-MB-231 breast
HOP-92 NSCLC = system: HOP-92 NSCLC
HCC-2998 colon = system: HCC-2998 colon
NCI/ADR-RES ovarian = system: NCI/ADR-RES ovarian
NCI-H522 lung = system: NCI-H522 lung
TK-10 renal = system: TK-10 renal
MOLT-4 leukemia = system: MOLT-4 leukemia
786-0 renal = system: 786-0 renal
MALME-3M melanoma = system: MALME-3M melanoma
RPMI-8226 leukemia = system: RPMI-8226 leukemia
DU-145 prostate = system: DU-145 prostate
CAKI-1 renal = system: CAKI-1 renal
MDA-MB-435 = system: MDA-MB-435
MCF7 breast = system: MCF7 breast
LOX IMVI melanoma = system: LOX IMVI melanoma
M14 melanoma = system: M14 melanoma
COLO 205 colon = system: COLO 205 colon
SNB-75 CNS = system: SNB-75 CNS
UACC-257 melanoma = system: UACC-257 melanoma
K-562 leukemia = system: K-562 leukemia
NCI-H226 lung = system: NCI-H226 lung
BT-549 breast = system: BT-549 breast
SW-620 colon = system: SW-620 colon
NCI-H23 lung = system: NCI-H23 lung
SF-539 CNS = system: SF-539 CNS
OVCAR-5 ovarian = system: OVCAR-5 ovarian
A498 renal = system: A498 renal
HL-60(TB) leukemia = system: HL-60(TB) leukemia
UACC-62 melanoma = system: UACC-62 melanoma
OVCAR-3 ovarian = system: OVCAR-3 ovarian
A549 NSCLC = system: A549 NSCLC
SF-268 CNS = system: SF-268 CNS
SK-MEL-5 melanoma = system: SK-MEL-5 melanoma
PC-3 prostate = system: PC-3 prostate
UO-31 renal = system: UO-31 renal
T-47D breast = system: T-47D breast
OVCAR-8 ovarian = system: OVCAR-8 ovarian
SN12C renal = system: SN12C renal
EKVX NSCLC = system: EKVX NSCLC
SK-MEL-2 melanoma = system: SK-MEL-2 melanoma
ACHN renal = system: ACHN renal
SNB-19 CNS = system: SNB-19 CNS
HCT-116 colon = system: HCT-116 colon
U251 CNS = system: U251 CNS

With `N#Cc1cccc(/C(N)=N/C(N)=N/c2nc3ccccc3s2)c1` the GI50 (HS 578T breast) was 531 nM, the TGI (HS 578T breast) was greater than 43.3 µM and the GI50 (SK-MEL-28 melanoma) was 5.33 µM. The TGI (SK-MEL-28 melanoma) was greater than 100 µM, the GI50 (HCT-15 colon) was 443 nM and the TGI (HCT-15 colon) was greater than 100 µM. For the same compound, the GI50 (OVCAR-4 ovarian) was 2740 nM, the TGI (OVCAR-4 ovarian) was greater than 100 µM and the GI50 (NCI-H460 lung) was 479 nM. For the same compound, the TGI (NCI-H460 lung) was greater than 100 µM, the GI50 (HT29 colon) was 450 nM and the TGI (HT29 colon) was greater than 100 µM. The GI50 (SR leukemia) was 437 nM, the TGI (SR leukemia) was greater than 100 µM and the GI50 (CCRF-CEM leukemia) was 551 nM. It also gave a TGI (CCRF-CEM leukemia) greater than 100 µM, a GI50 (RXF 393 renal) of 388 nM and a TGI (RXF 393 renal) of 2420 nM. It also gave a GI50 (HOP-62 NSCLC) of 609 nM, a TGI (HOP-62 NSCLC) of 18.2 µM and a GI50 (SF-295 CNS) of 504 nM. For the same compound, the TGI (SF-295 CNS) was greater than 41 µM, the GI50 (IGROV1 ovarian) was 826 nM and the TGI (IGROV1 ovarian) was greater than 100 µM. It also gave a GI50 (KM12 colon) of 511 nM, a TGI (KM12 colon) greater than 100 µM and a GI50 (SK-OV-3 ovarian) of 1790 nM. For the same compound, the TGI (SK-OV-3 ovarian) was 40.7 µM, the GI50 (MDA-MB-231 breast) was 2640 nM and the TGI (MDA-MB-231 breast) was greater than 100 µM. The GI50 (HOP-92 NSCLC) was 2750 nM, the TGI (HOP-92 NSCLC) was greater than 60.6 µM and the GI50 (HCC-2998 colon) was 2850 nM. The TGI (HCC-2998 colon) was greater than 100 µM, the GI50 (NCI/ADR-RES ovarian) was 437 nM and the TGI (NCI/ADR-RES ovarian) was greater than 100 µM. It also gave a GI50 (NCI-H522 lung) of 481 nM, a TGI (NCI-H522 lung) greater than 100 µM and a GI50 (TK-10 renal) of 9.17 µM. It also gave a TGI (TK-10 renal) greater than 92.4 µM, a GI50 (MOLT-4 leukemia) of 657 nM and a TGI (MOLT-4 leukemia) greater than 25.6 µM. The GI50 (786-0 renal) was 733 nM, the TGI (786-0 renal) was greater than 77.7 µM and the GI50 (MALME-3M melanoma) was 1570 nM. It also gave a TGI (MALME-3M melanoma) greater than 66.7 µM, a GI50 (RPMI-8226 leukemia) of 686 nM and a TGI (RPMI-8226 leukemia) greater than 100 µM. It also gave a GI50 (DU-145 prostate) of 1560 nM, a TGI (DU-145 prostate) greater than 100 µM and a GI50 (CAKI-1 renal) of 538 nM. For the same compound, the TGI (CAKI-1 renal) was greater than 34.3 µM, the GI50 (MDA-MB-435) was 211 nM and the TGI (MDA-MB-435) was 776 nM. For the same compound, the GI50 (MCF7 breast) was 427 nM, the TGI (MCF7 breast) was greater than 100 µM and the GI50 (LOX IMVI melanoma) was 614 nM. The TGI (LOX IMVI melanoma) was greater than 100 µM, the GI50 (M14 melanoma) was 513 nM and the TGI (M14 melanoma) was greater than 100 µM. The GI50 (COLO 205 colon) was 1020 nM, the TGI (COLO 205 colon) was greater than 100 µM and the GI50 (SNB-75 CNS) was 213 nM. It also gave a TGI (SNB-75 CNS) of 9.33 µM, a GI50 (UACC-257 melanoma) greater than 100 µM and a TGI (UACC-257 melanoma) greater than 100 µM. For the same compound, the GI50 (K-562 leukemia) was 316 nM, the TGI (K-562 leukemia) was greater than 100 µM and the GI50 (NCI-H226 lung) was 1220 nM. It also gave a TGI (NCI-H226 lung) of 73.8 µM, a GI50 (BT-549 breast) of 1030 nM and a TGI (BT-549 breast) greater than 59.3 µM. The GI50 (SW-620 colon) was 485 nM, the TGI (SW-620 colon) was greater than 100 µM and the GI50 (NCI-H23 lung) was 1790 nM. The TGI (NCI-H23 lung) was greater than 100 µM, the GI50 (SF-539 CNS) was 457 nM and the TGI (SF-539 CNS) was 4.05 µM. For the same compound, the GI50 (OVCAR-5 ovarian) was 3.65 µM, the TGI (OVCAR-5 ovarian) was greater than 100 µM and the GI50 (A498 renal) was 1130 nM. It also gave a TGI (A498 renal) of 11.6 µM, a GI50 (HL-60(TB) leukemia) of 311 nM and a GI50 (UACC-62 melanoma) of 418 nM. It also gave a TGI (UACC-62 melanoma) greater than 71.5 µM, a GI50 (OVCAR-3 ovarian) of 508 nM and a TGI (OVCAR-3 ovarian) greater than 23.2 µM. For the same compound, the GI50 (A549 NSCLC) was 3.48 µM, the TGI (A549 NSCLC) was greater than 100 µM and the GI50 (SF-268 CNS) was 1700 nM. The TGI (SF-268 CNS) was greater than 71.7 µM, the GI50 (SK-MEL-5 melanoma) was 699 nM and the TGI (SK-MEL-5 melanoma) was greater than 28.2 µM. For the same compound, the GI50 (PC-3 prostate) was 840 nM, the TGI (PC-3 prostate) was greater than 100 µM and the GI50 (UO-31 renal) was 1810 nM. The TGI (UO-31 renal) was greater than 100 µM, the GI50 (T-47D breast) was 659 nM and the TGI (T-47D breast) was greater than 100 µM. For the same compound, the GI50 (OVCAR-8 ovarian) was 1590 nM, the TGI (OVCAR-8 ovarian) was greater than 100 µM and the GI50 (SN12C renal) was 1130 nM. The TGI (SN12C renal) was greater than 100 µM, the GI50 (EKVX NSCLC) was 2410 nM and the TGI (EKVX NSCLC) was greater than 100 µM. It also gave a GI50 (SK-MEL-2 melanoma) of 1330 nM, a TGI (SK-MEL-2 melanoma) greater than 60.7 µM and a GI50 (ACHN renal) of 855 nM. It also gave a TGI (ACHN renal) greater than 100 µM, a GI50 (SNB-19 CNS) of 614 nM and a TGI (SNB-19 CNS) greater than 72.6 µM. For the same compound, the GI50 (HCT-116 colon) was 487 nM, the TGI (HCT-116 colon) was greater than 100 µM and the GI50 (U251 CNS) was 591 nM. The TGI (U251 CNS) was greater than 54.4 µM.
